Values quoted from earlier work, collected in patent US11865215B2, “Tablet compositions comprising abiraterone acetate” (SYNTHON B.V., priority 2018, dated 2024).

Key:
[1] = not given; remark: listed apart in the source

Compound | BCS System class (compound of low solubility and low permeability) | effect of taking the tablet with food on absorption ([1]; with food) | solubility in water | time to reach maximum plasma concentration of abiraterone ([1]; oral administration in the fasting state)
CC(=O)O[C@H]1CC[C@@]2(C)C(=CC[C@@H]3[C@@H]2CC[C@]2(C)C(c4cccnc4)=CC[C@@H]32)C1 [Abiraterone acetate, 3β-acetoxy-17-(3-pyridyl)androsta-5,16-diene] | Class IV | significantly and undesirably increases the absorption |  | 
C[C@]12CC[C@H](O)CC1=CC[C@@H]1[C@@H]2CC[C@]2(C)C(c3cccnc3)=CC[C@@H]12 [Abiraterone] |  |  | less than 0.1 mg/ml | approx. 2 hours
